# Measured values reported in patent publication US20100004168A1, “Use of Crystallin For The Modulation of Angiogenesis” (The Johns Hopkins University, priority 2006, published 2010).
# Entries after “also recorded” stand apart in the source; their conditions may differ.
# B1: PEDF: PEDF added at 0.2 μg/ml to HREC cultures (protein, UniProt P36955 20-418, looked up)
# Pigment epithelium-derived …: QNPASPPEEGSPDPDSTGALVEEEDPFFKVPVNKLAAAVSNFGYDLYRVRSSTSPTTNVLLSPLSVATALSALSLGAEQRTESIIHRALYYDLISSPDIHGTYKELLDTVTAPQKNLKSASRIVFEKKLRIKSSFVAPLEKSYGTRPRVLTGNPRLDLQEINNWVQAQMKGKLARSTKEIPDEISILLLGVAHFKGQWVTKFDSRKTSLEDFYLDEERTVRVPMMSDPKAVLRYGLDSDLSCKIAQLPLTGSMSIIFFLPLKVTQNLTLIEESLTSEFIHDIDRELKTVQAVLTVPKLKLSYEGEVTKSLQEMKLQSLFDSPDFSKITGKPIKLTQVEHRAGFEWNEDGAGTTPSPGLQPAHLTFPLDYHLNQPFIFVLRDTDTGALLFIGKILDPRGP
# Key:
# [1] = tested on: HUVEC (Human umbilical vein endothelial cells); assay: Three-dimensional tube formation assay of HUVEC on Matrigel; type: cell-based; settings: HUVEC on Matrigel treated with purified proteins (crystallins 0.5 μg/ml), vs controls
# Description: In order to better understand the functional role of β/γ-crystallins in vascular remodeling, HUVEC (Human umbilical vein endothelial cells) were established in culture. HUVEC differentiation into tube-like structures in three dimensional Matrigel cultures has been commonly used as a model system to studying angiogenesis (Edelman et al. Exp. Eye Res. 80(2): 249-58, 2005; Xin et al. J. Biol. Chem. 274(13): 9116-21, 1999). After plating HUVEC onto Matrigel, the cells differentiated to form tubes and a capillary-like network at the minimum seeding density of 5×10^3 cells/well (FIGS. 20A-20F). These differentiated cells form tubes and express crystallins (FIGS. 21A and 21B).
# The effect of β/γ crystallins and VEGF on HUVEC tube formation and regression was examined. VEGF protein used in this study was purchased from R&D Systems (Minneapolis, Minn.) and the polyclonal antibody was from Santa Cruz Biotechnology (Santa Cruz, Calif.). To prepare the crystallin proteins, lenses dissected from bovine eyes were homogenized in 7 volumes of 0.05M Tris buffer, pH 7.4 containing 0.1M KCl, 10 mM 2-mercaptoethanol and 0.02% NaN3. […] Fractions were collected and peaks analyzed by SDS-PAGE. […]
# The cells were exposed to 0.2 μg/ml to 2 μg/ml of crystallin proteins, with a maximum effect at 0.5 μg/ml with negligible cell death as determined by trypan-blue exclusion. […]
# [2] = tested on: Human Retinal Endothelial Cells (HREC); assay: Matrigel tube formation in cultured human retinal endothelial cells; type: cell-based; settings: exogenously applied protein, Matrigel pre-coated plates, VEGF omitted from media supplement
# Method: HREC were cultured in EGM2MV media according to the manufacturer's protocol either in the absence (FIG. 25A), or presence (FIG. 25B) of pre-coated Matrigel matrix (Cambrex). (4× magnification)
# FIG. 28 is a graph showing the effect of Exogenous γ-crystallins, VEGF, and PEDF on Tube Length in Cultured Human Retinal Endothelial Cells (HREC): HREC grown on Matrigel-coated tissue culture plates in EGM2MV media with VEGF omitted from the media supplement. Cells were treated with BSA (control), 0.2 μg/ml VEGF, 0.6 μg/ml VEGF, concentrations of […] ranging from 0.5 μg/ml to 1.0 μg/ml, or 0.2 μg/ml PEDF. Average tube length was calculated after measuring all of the tubes formed in three separate optical fields from 7 individual culture dishes.
# As reported above, a functionally significant effect of β/γ crystallins on vascular remodeling the effect of β/γ crystallins was established on human umbilical vein endothelial cells (HUVEC) in culture. Because the behavior of vascular endothelial cells varies according to their source and the resident tissue environment, the effect of β/γ crystallins on cultured human retinal endothelial cells (HREC) was subsequently analyzed. […] FIG. 28 quantifies these effects.
# [3] = tested on: Human astrocyte cell line (SVG); assay: VEGF and crystallin immunostaining in cultured astrocytes exposed to 3-nitropropionic acid; type: cell-based; settings: 10 μM 3-NP
# Method: Human astrocyte cell line (SVG) was treated with 10 μM 3-NP, and cells were harvested for immunostaining with antibodies to VEGF and crystallins after 6, 12, and 24 hours. […] Fluorescence with both of the antibodies is increased after 12 hours of exposure to 3-NP in culture. […] Nuclei were counterstained with DAPI.
# It has been shown that astrocytes are sensitive to hypoxia, which induces them to release VEGF (Chow et al., 2001; Sandercoe et al., 2003). To determine if astrocytes also express β- and γ-crystallins in response to hypoxia, 3-nitropropionic acid, an irreversible inhibitor of mitochondrial succinate dehydrogenase activity was used (Cavaliere et al., Neurochem Int 38:189-197, 2001). It can be considered a model substance to study hypoxic neuronal damage (Riepe et al., Neurosci Lett 211:9-12, 1996).
# The SVG cell line used in this study was derived from human fetal astrocytes transformed with SV40 large T antigen (Major et al., J Biol Chem 278:13512-13519, 1985; Tornatore et al., Cell Transplant 5:145-163, 1996). Cultures of the human fetal astrocyte cell line (SVG) were maintained in Dulbecco's modified Eagle's medium with 2 mM L-glutamine, 10% fetal bovine serum, and streptomycin penicillin-fungizone solutions. Cells grown in 60-mm dishes were treated with 10 μM 3-nitropropionic acid (3NP) for 6, 12, and 24 hours at 37° C. and then fixed with paraformaldehyde (4%) for 15 minutes and blocked with 3% BSA at 4° C. overnight. The fixed cells were processed following standard techniques for immunofluorescence using VEGF and crystallin antibodies as indicated earlier.
# [4] = tested on: Human Retinal Endothelial Cells (HREC); settings: relatively high dose tested (0.2 μg/ml PEDF); cited from earlier work
molecule,measurement,setting,value
VEGF,tube length (tube processes),[1],longer tubes
same,HREC vessel-like tube formation,[2],enhanced
"O=C(O)CC[N+](=O)[O-] [3-NP, 3-nitropropionic acid]",VEGF expression (immunostaining),[3]; 6 hours,induction; also recorded: distinct cytoplasmic staining
same,β- and γ-crystallin expression (immunostaining),[3]; 6 hours,induction; also recorded: distinct cytoplasmic staining
same,VEGF antibody fluorescence,[3]; 12 hours,increased
same,γ-crystallin antibody fluorescence,[3]; 12 hours,increased
same,cell death,[3]; 24 hours,most of the cells have died
B1,tube formation,[4],stimulate tube formation
